From PubChem BioAssay (NCI)
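Where inhibition never reached the appropriate level, the endpoint shown equals the highest concentration tested. Otherwise, values were interpolated linearly from a five-concentration, 48-hour dose response in 96-well plates. GI50 is the concentration that inhibits growth by half. TGI: total growth inhibition.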 Where a SMILES comes first, the peptide text is derived from it. [ ]: non-standard residue; d: D form. pGlu = O=C1CC[CH](C(=O)O)N1

What was measured:
Assay in all cases: growth of human tumour cells (NCI), 48 h
CCRF-CEM leukemia = tested on: CCRF-CEM leukemia
IGROV1 ovarian = tested on: IGROV1 ovarian
SR leukemia = tested on: SR leukemia
OVCAR-4 ovarian = tested on: OVCAR-4 ovarian
NCI/ADR-RES ovarian = tested on: NCI/ADR-RES ovarian
SK-OV-3 ovarian = tested on: SK-OV-3 ovarian
OVCAR-8 ovarian = tested on: OVCAR-8 ovarian
MALME-3M melanoma = tested on: MALME-3M melanoma
UO-31 renal = tested on: UO-31 renal
EKVX NSCLC = tested on: EKVX NSCLC
COLO 205 colon = tested on: COLO 205 colon
SK-MEL-28 melanoma = tested on: SK-MEL-28 melanoma
SK-MEL-2 melanoma = tested on: SK-MEL-2 melanoma
DU-145 prostate = tested on: DU-145 prostate
MOLT-4 leukemia = tested on: MOLT-4 leukemia
HT29 colon = tested on: HT29 colon
SNB-19 CNS = tested on: SNB-19 CNS
OVCAR-5 ovarian = tested on: OVCAR-5 ovarian
HCC-2998 colon = tested on: HCC-2998 colon
A498 renal = tested on: A498 renal
LOX IMVI melanoma = tested on: LOX IMVI melanoma
NCI-H460 lung = tested on: NCI-H460 lung
U251 CNS = tested on: U251 CNS
SF-295 CNS = tested on: SF-295 CNS
NCI-H226 lung = tested on: NCI-H226 lung
K-562 leukemia = tested on: K-562 leukemia
MCF7 breast = tested on: MCF7 breast
MDA-MB-435 = tested on: MDA-MB-435
HOP-62 NSCLC = tested on: HOP-62 NSCLC
SW-620 colon = tested on: SW-620 colon
SK-MEL-5 melanoma = tested on: SK-MEL-5 melanoma
KM12 colon = tested on: KM12 colon
TK-10 renal = tested on: TK-10 renal
SF-268 CNS = tested on: SF-268 CNS
HOP-92 NSCLC = tested on: HOP-92 NSCLC
HS 578T breast = tested on: HS 578T breast
RPMI-8226 leukemia = tested on: RPMI-8226 leukemia
NCI-H23 lung = tested on: NCI-H23 lung
CAKI-1 renal = tested on: CAKI-1 renal
HCT-15 colon = tested on: HCT-15 colon
HCT-116 colon = tested on: HCT-116 colon
SNB-75 CNS = tested on: SNB-75 CNS
UACC-257 melanoma = tested on: UACC-257 melanoma
SN12C renal = tested on: SN12C renal
786-0 renal = tested on: 786-0 renal
OVCAR-3 ovarian = tested on: OVCAR-3 ovarian
HL-60(TB) leukemia = tested on: HL-60(TB) leukemia
RXF 393 renal = tested on: RXF 393 renal
A549 NSCLC = tested on: A549 NSCLC
BT-549 breast = tested on: BT-549 breast
MDA-MB-231 breast = tested on: MDA-MB-231 breast
T-47D breast = tested on: T-47D breast
PC-3 prostate = tested on: PC-3 prostate
SF-539 CNS = tested on: SF-539 CNS
ACHN renal = tested on: ACHN renal
NCI-H522 lung = tested on: NCI-H522 lung
M14 melanoma = tested on: M14 melanoma

## CCNC(=O)C1CCCN1C(=O)C(CCCN=C(N)N)NC(=O)C(CC(C)C)NC(=O)C(CC(C)C)NC(=O)C(Cc1ccc(O)cc1)NC(=O)C(CO)NC(=O)C(Cc1c[nH]c2ccccc12)NC(=O)C(Cc1cnc[nH]1)NC(=O)C1CCC(=O)N1 (centres undefined) ([pGlu]HWSYLLRP-NHEt; configuration not given here)
CCRF-CEM leukemia
  GI50: 81.7 µM
  TGI: > 100 µM
IGROV1 ovarian
  GI50: > 100 µM
  TGI: > 100 µM
SR leukemia
  GI50: > 100 µM
  TGI: > 100 µM
OVCAR-4 ovarian
  GI50: > 100 µM
  TGI: > 100 µM
NCI/ADR-RES ovarian
  GI50: > 100 µM
  TGI: > 100 µM
SK-OV-3 ovarian
  GI50: > 100 µM
  TGI: > 100 µM
OVCAR-8 ovarian
  GI50: > 100 µM
  TGI: > 100 µM
MALME-3M melanoma
  GI50: > 100 µM
  TGI: > 100 µM
UO-31 renal
  GI50: > 100 µM
  TGI: > 100 µM
EKVX NSCLC
  GI50: > 100 µM
  TGI: > 100 µM
COLO 205 colon
  GI50: > 100 µM
  TGI: > 100 µM
SK-MEL-28 melanoma
  GI50: > 100 µM
  TGI: > 100 µM
SK-MEL-2 melanoma
  GI50: > 100 µM
  TGI: > 100 µM
DU-145 prostate
  GI50: > 100 µM
  TGI: > 100 µM
MOLT-4 leukemia
  GI50: > 100 µM
  TGI: > 100 µM
HT29 colon
  GI50: > 100 µM
  TGI: > 100 µM
SNB-19 CNS
  GI50: > 100 µM
  TGI: > 100 µM
OVCAR-5 ovarian
  GI50: > 100 µM
  TGI: > 100 µM
HCC-2998 colon
  GI50: > 100 µM
  TGI: > 100 µM
A498 renal
  GI50: > 100 µM
  TGI: > 100 µM
LOX IMVI melanoma
  GI50: > 100 µM
  TGI: > 100 µM
NCI-H460 lung
  GI50: > 100 µM
  TGI: > 100 µM
U251 CNS
  GI50: > 100 µM
  TGI: > 100 µM
SF-295 CNS
  GI50: > 100 µM
  TGI: > 100 µM
NCI-H226 lung
  GI50: > 100 µM
  TGI: > 100 µM
K-562 leukemia
  GI50: > 100 µM
  TGI: > 100 µM
MCF7 breast
  GI50: > 100 µM
  TGI: > 100 µM
MDA-MB-435
  GI50: > 100 µM
  TGI: > 100 µM
HOP-62 NSCLC
  GI50: > 100 µM
  TGI: > 100 µM
SW-620 colon
  GI50: > 100 µM
  TGI: > 100 µM
SK-MEL-5 melanoma
  GI50: > 100 µM
  TGI: > 100 µM
KM12 colon
  GI50: > 100 µM
  TGI: > 100 µM
TK-10 renal
  GI50: > 100 µM
  TGI: > 100 µM
SF-268 CNS
  GI50: > 100 µM
  TGI: > 100 µM
HOP-92 NSCLC
  GI50: > 100 µM
  TGI: > 100 µM
HS 578T breast
  GI50: > 100 µM
  TGI: > 100 µM
RPMI-8226 leukemia
  GI50: 74.3 µM
  TGI: > 100 µM
NCI-H23 lung
  GI50: > 100 µM
  TGI: > 100 µM
CAKI-1 renal
  GI50: > 100 µM
  TGI: > 100 µM
HCT-15 colon
  GI50: > 100 µM
  TGI: > 100 µM
HCT-116 colon
  GI50: > 100 µM
  TGI: > 100 µM
SNB-75 CNS
  GI50: > 100 µM
  TGI: > 100 µM
UACC-257 melanoma
  GI50: > 100 µM
  TGI: > 100 µM
SN12C renal
  GI50: > 100 µM
  TGI: > 100 µM
786-0 renal
  GI50: > 100 µM
  TGI: > 100 µM
OVCAR-3 ovarian
  GI50: > 100 µM
  TGI: > 100 µM
HL-60(TB) leukemia
  GI50: > 100 µM
  TGI: > 100 µM
RXF 393 renal
  GI50: > 100 µM
  TGI: > 100 µM
A549 NSCLC
  GI50: > 100 µM
  TGI: > 100 µM
BT-549 breast
  GI50: > 100 µM
  TGI: > 100 µM
MDA-MB-231 breast
  GI50: > 100 µM
  TGI: > 100 µM
T-47D breast
  GI50: > 100 µM
  TGI: > 100 µM
PC-3 prostate
  GI50: > 100 µM
  TGI: > 100 µM
SF-539 CNS
  GI50: > 100 µM
  TGI: > 100 µM
ACHN renal
  GI50: > 100 µM
  TGI: > 100 µM
NCI-H522 lung
  GI50: > 100 µM
  TGI: > 100 µM
M14 melanoma
  GI50: > 100 µM
  TGI: > 100 µM
